Results from patent US12485140B2, “Transmission prevention of viruses with application of antiseptic composition” (Solventum Intellectual Properties Company, priority 2019, dated 2025).

Assays:
SARS-CoV-2 virus = assay: In vitro viricidal assay against SARS-CoV-2 (CCID50 end-point titer on Vero 76 cells); settings: 22 ± 2° C.; for Log Reduction Value (LRV): compared to the virus control; for Virus Titer: mean of 3 replicates
Vero 76 cells = settings: African green monkey

In the case of `CCO` [CE19, Ethanol], the “Log Reduction Value (LRV)” value (SARS-CoV-2 virus; incubation time 0.5 min) is reported as 2.4, the “Virus Titer” value (SARS-CoV-2 virus; incubation time 0.5 min) is reported as <1.7 Log10 CCID50 of virus per mL and the “Log Reduction Value (LRV)” value (SARS-CoV-2 virus; incubation time 1 min) is reported as 2.1. For the same compound, the “Virus Titer” value (SARS-CoV-2 virus; incubation time 1 min) was <1.7 Log10 CCID50 of virus per mL, the “Log Reduction Value (LRV)” value (SARS-CoV-2 virus; incubation time 2 min) was 2.3 and the “Virus Titer” value (SARS-CoV-2 virus; incubation time 2 min) was <1.7 Log10 CCID50 of virus per mL. The “dilutions of the neutralized sample showing toxicity toward Vero 76 cells” value (Vero 76 cells) was 1/10 dilution.
